Experimental data published in patent US20250282818A1, “SYRBACTIN MACROLACTAMS AND UNNATURAL ANALOGS AS PROTEASOME INHIBITORS FOR THE TREATMENT OF MULTIPLE MYELOMA AND CHEMOENZYMATIC SYNTHESIS THEREOF” (UNIVERSITY OF FLORIDA RESEARCH FOUNDATION,INCORPORATED, priority 2022, published 2025).
Entries after “also recorded” stand apart in the source; their conditions may differ.

Legend:
[1] = test system: RPMI 8226 cells; assay: RPMI 8226 cytotoxicity EC50 measurements (WST-1); type: cell-based, human; details: RPMI 8226, 48 hours
Experimental: (§1) RPMI 8226 cells were seeded in a 96-well plate (20,000 cells/well) in cell culture media supplemented with indicated compounds (1,000× stock in DMSO) or DMSO and cultured for 48 hours. Toxicity was determined using the WST-1 assay (Roche) according to the protocol of the manufacturer. (n=3)
as §1, with “Cytotoxicity of phenyl cepafungin (50) and hybrid analog (S39) in RPMI 8226 RPMI” for “RPMI”

[2] = target: T1, proteasome subunit β5 (Homo sapiens, UniProt P28074); assay: Proteasome inhibition IC50 measurements in RPMI 8226 cells, substrate Suc-LLVY-AMC (β5); type: cell-based; details: β5, RPMI 8226 cells
T1 construct: Cells were then collected and lysed; endogenous in cells; host or cells: RPMI 8226
Description: Our preliminary series of analogs (FIG. 3), including the natural product glidobactin A (2), were synthesized by largely the same route (FIG. 2).^13 Desoxycepafungin (38) was synthesized from Boc-Lys(Boc)-OH to assess the role of the macrocycle hydroxylation in 1 towards proteasome inhibition. The saturated cepafungin analog 39 was designed to address the possible role of rigidity in the tail fragment induced by the diene seen in many natural cepafungins and glidobactins. An analog bearing unsaturation at its macrocyclic lysine was envisioned to provide a head-to-head comparison between the cepafungin and syringolin A (4) macrocyclic core. […] Proteasome subunit β5 IC50 values were determined in situ in RPMI 8226 cells (FIG. 3). In close agreement with prior measurement of β5 IC50 for natural 1 and 2 in purified yeast proteasome,^8 in our hands the additional branching methyl in 1 indeed leads to ca. 5-fold improved IC50 compared to 2 in RPMI 8226 cells. […] Likewise, saturation of the fatty acid fragment in 39 causes ca. 14-fold decrease in β5 inhibition. This preliminary series of analogs highlighted that the macrocyclic hydroxylation, fatty acid unsaturation, and terminal lipid functionality are critical for potent proteasome inhibitory activity.
Cellular assays were performed with human multiple myeloma cell line RPMI 8226. First, relative inhibition of proteasome subunits β5 and β2 for all analogs and the natural product was measured at 30 nM compound concentration. Following incubation of the analogs in cell culture for 6 hours, cells were lysed and fluorogenic subunit-specific peptide substrates Suc-LLVY-AMC (β5) or Ac-RLR-AMC (β2) were incubated with the lysates, and fluorescence readings provided relative proteasome activity levels with respect to DMSO (FIG. 6A). Next, cytotoxicity screening was performed at 30 nM and 100 nM concentrations for better coverage of dynamic range (FIG. 6B). […] Therefore, the improved cytotoxicity of phenyl cepafungin 50 likely results from a more pronounced loss of β5 function in RPMI 8226 cells. This drastic increase in proteasome inhibition may be due to pi-stacking of the lipid tail phenyl ring with the β6 subunit residues Tyr106 and/or Tyr5. The β2 subunit-bound natural product has residues Tyr102 and Phe103 on the adjacent β3 subunit oriented further away from the terminal lipid methyl groups, and presumably would not facilitate pi-stacking to the extent possible at the adjacent β6 subunit (see FIG. 4, FIG. 9). […]
RPMI 8226 cells were seeded in a 6-well plate (1,000,000 cells/well) in cell culture media supplemented with indicated compounds (1,000× stock in DMSO) or DMSO and cultured for 6 hours. […] The plates were incubated at 37° C. for one hour and fluorescence was read at A360ex/A460em. […]

[3] = test system: RPMI 8226 cells; assay: RPMI8226 cytotoxicity screening (WST-1); type: cell-based, human; details: for cytotoxicity / activity compared with the natural product, in words: 30 nM and 100 nM compound concentration; for potency compared with parent natural product 1 in screening (FIG. 6A, 6B): 30 nM and 100 nM, cytotoxicities track with proteasome inhibition at 30 nM
Experimental: Cellular assays were performed with human multiple myeloma cell line RPMI 8226. First, relative inhibition of proteasome subunits β5 and β2 for all analogs and the natural product was measured at 30 nM compound concentration. Following incubation of the analogs in cell culture for 6 hours, cells were lysed and fluorogenic subunit-specific peptide substrates Suc-LLVY-AMC (β5) or Ac-RLR-AMC (β2) were incubated with the lysates, and fluorescence readings provided relative proteasome activity levels with respect to DMSO (FIG. 6A). Next, cytotoxicity screening was performed at 30 nM and 100 nM concentrations for better coverage of dynamic range (FIG. 6B). […] Therefore, the improved cytotoxicity of phenyl cepafungin 50 likely results from a more pronounced loss of β5 function in RPMI 8226 cells. This drastic increase in proteasome inhibition may be due to pi-stacking of the lipid tail phenyl ring with the β6 subunit residues Tyr106 and/or Tyr5. The β2 subunit-bound natural product has residues Tyr102 and Phe103 on the adjacent β3 subunit oriented further away from the terminal lipid methyl groups, and presumably would not facilitate pi-stacking to the extent possible at the adjacent β6 subunit (see FIG. 4, FIG. 9). […] These combined modifications were made in hopes that the effects of both substitutions would be additive.
[…] Toxicity was determined using the WST-1 assay (Roche) according to the protocol of the manufacturer. (n=3)

| SMILES | cytotoxicity / activity compared with the natural product, in words [3] | also measured |
| --- | --- | --- |
| CC(C)[C@H]1/C=C/C(=O)NCC[C@H](O)C[C@H](NC(=O)[C@@H](NC(=O)/C=C/C=C/CCCCCc2ccccc2)[C@@H](C)O)C(=O)N1 [S39, (2E,4E)-N-((2S,3R)-3-hydroxy-1-(((5S,8S,10S,E)-10-hydroxy-5-isopropyl-2,7-dioxo-1,6-diazacyclododec-3-en-8-yl)amino)-1-oxobutan-2-yl)-10-phenyldeca-2,4-dienamide] |  | EC50 ([1]; Homo sapiens, WST-1): 4.5 nM; cytotoxicity EC50 compared with natural product and 50, in words [1]: significantly more potent than the natural product; also recorded: its cytotoxicity did not surpass that of 50 |
| CC(C)CCCCC/C=C/C=C/C(=O)N[C@H](C(=O)N[C@H]1CCCCNC(=O)/C=C/[C@H](C)NC1=O)[C@@H](C)O [compound 38, Desoxycepafungin] |  | fold higher IC50 than 1 [2]: ca. 11 fold |
| CC(C)CCCCC/C=C/C=C/C(=O)N[C@H](C(=O)N[C@H]1C[C@H](O)CCNC(=O)/C=C/[C@H](C)NC1=O)[C@@H](C)O [compound 40, (2E,4E)-N-((2S,3R)-3-hydroxy-1-(((5S,8S,10R,E)-10-hydroxy-5-methyl-2,7-dioxo-1,6-diazacyclododec-3-en-8-yl)amino)-1-oxobutan-2-yl)-11-methyldodeca-2,4-dienamide] | nearly inactive at both concentrations |  |
| CC(C)CCCCC/C=C/C=C/C(=O)N[C@H](C(=O)N[C@@H]1C(=O)N[C@@H](C)/C=C/C(=O)NCCC[C@@H]1O)[C@@H](C)O [compound 41, (2E,4E)-N-((2S,3R)-3-hydroxy-1-(((5S,8S,9S,E)-9-hydroxy-5-methyl-2,7-dioxo-1,6-diazacyclododec-3-en-8-yl)amino)-1-oxobutan-2-yl)-11-methyldodeca-2,4-dienamide] | nearly inactive at both concentrations |  |
| CC(C)CCCCC/C=C/C=C/C(=O)N[C@H](C(=O)N[C@H]1CC(=O)CCNC(=O)/C=C/[C@H](C)NC1=O)[C@@H](C)O [compound 42, (2E,4E)-N-((2S,3R)-3-hydroxy-1-(((5S,8S,E)-5-methyl-2,7,10-trioxo-1,6-diazacyclododec-3-en-8-yl)amino)-1-oxobutan-2-yl)-11-methyldodeca-2,4-dienamide] | potency approaching that of the natural product |  |
| CC(C)CCCCC/C=C/C=C/C(=O)N[C@H](C(=O)N[C@H]1C[C@@H](O)CCNC(=O)/C=C/[C@H](C(C)C)NC1=O)[C@@H](C)O [compound 43, (2E,4E)-N-((2S,3R)-3-hydroxy-1-(((5S,8S,10S,E)-10-hydroxy-5-isopropyl-2,7-dioxo-1,6-diazacyclododec-3-en-8-yl)amino)-1-oxobutan-2-yl)-11-methyldodeca-2,4-dienamide] | slightly greater cytotoxicity than the natural product | potency compared with parent natural product 1 in screening (FIG. 6A, 6B) [3]: more potent than the parent natural product 1 |
| CC[C@H](NC(=O)/C=C/C=C/CCCCCC(C)C)C(=O)N[C@H]1C[C@@H](O)CCNC(=O)/C=C/[C@H](C)NC1=O [compound 44, (2E,4E)-N—((S)-1-(((5S,8S,10S,E)-10-hydroxy-5-methyl-2,7-dioxo-1,6-diazacyclododec-3-en-8-yl)amino)-1-oxobutan-2-yl)-11-methyldodeca-2,4-dienamide] | Thr residue next to the cepafungin macrocycle appears to be favored over the ethyl sidechain of desoxy-Thr analog 44 |  |
| CC(C)CCCCC/C=C/C=C/C(=O)N[C@H](C(=O)N[C@H]1C[C@@H](O)CCNC(=O)/C=C/[C@H](C)NC1=O)[C@H](O)c1ccccc1 [compound 45, (2E,4E)-N-((1R,2S)-1-hydroxy-3-(((5S,8S,10S,E)-10-hydroxy-5-methyl-2,7-dioxo-1,6-diazacyclododec-3-en-8-yl)amino)-3-oxo-1-phenylpropan-2-yl)-11-methyldodeca-2,4-dienamide] | substantially weaker |  |
| CC(C)CCCCC/C=C/C=C/C(=O)N[C@H](C(=O)N[C@H]1C[C@@H](O)CCNC(=O)/C=C/[C@H](C)NC1=O)[C@H](O)C(C)C [compound 46, (2E,4E)-N-((2S,3R)-3-hydroxy-1-(((5S,8S,10S,E)-10-hydroxy-5-methyl-2,7-dioxo-1,6-diazacyclododec-3-en-8-yl)amino)-4-methyl-1-oxopentan-2-yl)-11-methyldodeca-2,4-dienamide] | approached the potency of the natural product |  |
| C[C@H]1/C=C/C(=O)NCC[C@H](O)C[C@H](NC(=O)[C@@H](NC(=O)/C=C/C=C/CCCCCC(C)(C)C)[C@@H](C)O)C(=O)N1 [compound 47, (2E,4E)-N-((2S,3R)-3-hydroxy-1-(((5S,8S,10S,E)-10-hydroxy-5-methyl-2,7-dioxo-1,6-diazacyclododec-3-en-8-yl)amino)-1-oxobutan-2-yl)-11,11-dimethyldodeca-2,4-dienamide] | improved cytotoxicity relative to 1 | potency compared with parent natural product 1 in screening (FIG. 6A, 6B) [3]: more potent than the parent natural product 1 |
| C[C@H]1/C=C/C(=O)NCC[C@H](O)C[C@H](NC(=O)[C@@H](NC(=O)/C=C/C=C/CCCCCC2CCCC2)[C@@H](C)O)C(=O)N1 [compound 48, (2E,4E)-10-cyclopentyl-N-((2S,3R)-3-hydroxy-1-(((5S,8S,10S,E)-10-hydroxy-5-methyl-2,7-dioxo-1,6-diazacyclododec-3-en-8-yl)amino)-1-oxobutan-2-yl)deca-2,4-dienamide] | improved cytotoxicity relative to 1 | potency compared with parent natural product 1 in screening (FIG. 6A, 6B) [3]: more potent than the parent natural product 1 |
| C[C@H]1/C=C/C(=O)NCC[C@H](O)C[C@H](NC(=O)[C@@H](NC(=O)/C=C/C=C/CCCCCC2CCCCC2)[C@@H](C)O)C(=O)N1 [compound 49, (2E,4E)-10-cyclohexyl-N-((2S,3R)-3-hydroxy-1-(((5S,8S,10S,E)-10-hydroxy-5-methyl-2,7-dioxo-1,6-diazacyclododec-3-en-8-yl)amino)-1-oxobutan-2-yl)deca-2,4-dienamide] | roughly similar activity as the natural product |  |
| C[C@H]1/C=C/C(=O)NCC[C@H](O)C[C@H](NC(=O)[C@@H](NC(=O)/C=C/C=C/CCCCCC(F)(F)F)[C@@H](C)O)C(=O)N1 [compound 51, (2E,4E)-11,11,11-trifluoro-N-((2S,3R)-3-hydroxy-1-(((5S,8S,10S,E)-10-hydroxy-5-methyl-2,7-dioxo-1,6-diazacyclododec-3-en-8-yl)amino)-1-oxobutan-2-yl)undeca-2,4-dienamide] | essentially inactive at both concentrations tested |  |
